Experimental data published in patent US20240174690A1, “ANNULATED 2-AMINO-3-CYANO THIOPHENES AND DERIVATIVES FOR THE TREATMENT OF CANCER” (BOEHRINGER INGELHEIM INTERNATIONAL GMBH, priority 2021, published 2024).

What was measured:
KRAS (G12V)::SOS1 = KRAS (G12V)::SOS1 (Homo sapiens (Human), UniProt P01116, C118S/G12V); experiment: KRAS::SOS1 AlphaScreen binding assay, KRAS G12V
From the text: (§1) This assay can be used to examine the potency with which compounds according to the invention binding to (mutated) KRAS inhibit the protein-protein interaction between SOS1 and (mutated) KRAS e.g., KRAS WT, KRAS G12C, KRAS G12D, KRAS G12V, KRAS G13D. […] Low IC50 values in this assay setting are indicative of strong inhibition of protein-protein interaction between SOS1 and KRAS:
(§2) These assays measure the inhibitory effect of compounds on KRAS mutant protein-protein interactions using the Alpha Screen technology by Perkin Elmer.
(§3) The following (mutant) enzyme forms of KRAS and interacting proteins are used in these assays at the given concentrations: • KRAS (G12D) 1-169, N-terminal 6His-tag, C-terminal avi-tag (Xtal BioStructures, Inc.); final assay concentration 10 nM and SOS1 564-1049, N-terminal 229 GST-tag, TEV cleavage site (Viva Biotech Ltd); final assay concentration 5 nM; • KRAS (G12C) 1-169, N-terminal 6His-tag for purification, cleaved off, C-terminal avi-tag, biotinylated, mutations: C51S, C80L, C118S (in house); final assay concentration 7.5 nM and SOS1 564-1049, N-terminal 229 GST-tag, TEV cleavage site (Viva Biotech Ltd); final assay concentration 5 nM; • KRAS (G12V) 1-169, N-terminal 6His-tag for purification, cleaved off, C-terminal avi-tag, biotinylated, TEV cleavage site, mutation: C118S, GDP loaded (in house); final assay concentration 10 nM and SOS1 564-1049, N-terminal 229 GST-tag, TEV cleavage site (Viva Biotech Ltd); final assay concentration 10 nM; • KRAS (G13D) 1-169, N-terminal 6His-tag for purification, cleaved off, C-terminal avi-tag, biotinylated, TEV cleavage site, mutation: C118S, GDP loaded (in house); final assay concentration 10 nM and SOS1 564-1049, N-terminal 229 GST-tag, TEV cleavage site (Viva Biotech Ltd); final assay concentration 10 nM; • KRAS (WT) 1-169, N-terminal 6His-tag for purification, cleaved off, C-terminal avi-tag, biotinylated, TEV cleavage site, mutation: C118S, GDP loaded (in house); final assay concentration 10 nM and SOS1 564-1049, N-terminal 229 GST-tag, TEV cleavage site (Viva Biotech Ltd); final assay concentration 10 nM.
(§4) Test compounds dissolved in DMSO are dispensed onto assay plates (Proxiplate 384 PLUS, white, PerkinElmer; 6008289) using an Access Labcyte Workstation with the Labcyte Echo 55×. For the chosen highest assay concentration of 100 μM, 150 nL of compound solution are transferred from a 10 mM DMSO compound stock solution. A series of eleven fivefold dilutions per compound are transferred to the assay plate, compound dilutions are tested in duplicates. DMSO are added as backfill to a total volume of 150 nL.
(§5) The assays run on a fully automated robotic system in a darkened room below 100 Lux. To 150 nl of compound dilution 10 μl of a mix including KRAS mutant protein, SOS1 (final assay concentrations see above) and GDP nucleotide (Sigma G7127; final assay concentration 10 μM) in assay buffer (1×PBS, 0.1% BSA, 0.05% Tween 20) are added into columns 1-24.
(§6) After 30 minutes incubation time 5 μl of Alpha Screen bead mix in assay buffer are added into columns 1-23. Bead mix consists of AlphaLISA Glutathione Acceptor Beads (PerkinElmer, Cat No AL109) and AlphaScreen Streptavidin Donor Beads (PerkinElmer Cat No 6760002) in assay buffer at a final assay concentration of 10 μg/ml each.
(§7) Plates are kept at room temperature in a darkened incubator. After an additional 60 minutes incubation time the signal is measured in a PerkinElmer Envision HTS Multilabel Reader using the AlphaScreen specs from PerkinElmer.
(§8) Each plate contains up to 16 wells of a negative control depending on the dilution procedure (platewise or serial) (DMSO instead of test compound; with KRAS mutant::SOS1 GDP mix and bead mix; column 23) and 16 wells of a positive control (DMSO instead of test compound; with KRAS mutant::SOS1 GDP mix w/o bead mix; column 24).
(§9) As internal control known inhibitors of KRAS mutant::SOS1 interaction can be measured on each compound plate. […]

KRAS (G13D)::SOS1 = KRAS (G13D)::SOS1 (Homo sapiens (Human), UniProt P01116, C118S/G13D); experiment: KRAS::SOS1 AlphaScreen binding assay, KRAS G13D
From the text: as §1, §2, §3, §4, §5, §6, §7, §8, §9

GP2D cells = experiment: GP2D proliferation assay (120 h) (colorectal cancer, G12D); assay type: cell-based
Procedure: GP2D Proliferation Assay (120 h) (Colorectal Cancer, G12D)
GP2D cells (ATCC No. CRL-5807) are dispensed into white 384-well plates, flat and white bottom (Perkin Elmer, 6007680) at a density of 500 cells per well in 40 μl DMEM (Sigma, D6429)+1×GlutaMAX (Gibco, 35050038)+10% FCS (fetal calf serum). […] Compounds (10 mM stock in DMSO) are added at logarithmic dose series using the HP Digital Dispenser D300 (Tecan), including DMSO controls and normalizing for added DMSO. For the TO time point measurement, untreated cells are analyzed at the time of compound addition. Plates are incubated for 120 h, and cell viability is measured using CellTiter-Glo luminescent cell viability reagent (Promega product code G7570). Viability (stated as percent of control) is defined as relative luminescence units RLU of each well divided by the RLU of cells in DMSO controls. IC50 values are determined from viability measurements by non-linear regression using a four parameter model.

A375 cells = experiment: A375 CTG proliferation assay (120 h) (melanoma, wt, B-Raf mutant, negative control); assay type: cell-based; details: Homo sapiens, A-375, CTG 120 h
Procedure: A375 CTG Proliferation Assay (120 h) (Melanoma, Wt, B-Raf Mutant, Negative Control)
A375 cells (ATCC CRL-1619) are dispensed into 384-well plates, flat and clear bottom (Greiner, PNr. 781091) at a density of 300 cells per well in 60 μL DMEM (Sigma 06429)+10% Fetal Calf Serum (HyClone, PNr.: SH30084.03) and incubated at 37° C. in a CO2 incubator overnight. The next day, compounds (10 mM stock in DMSO) are added at logarithmic dose series using the HP Digital Dispenser D300 (Tecan), including DMSO controls. Plates are incubated for 120 h, and cell viability is measured using CellTiter-Glo luminescent cell viability reagent (Promega product code G7570). Viability (stated as percent of control) is defined as relative luminescence units RLU of each well divided by the RLU of cells in DMSO controls. IC50 values are determined from viability measurements by non-linear regression using a four-parameter model.

KRAS (G12V)::SOS1, sequence (P01116 other isoform, or with tags, fused parts or gaps G12V/C118S): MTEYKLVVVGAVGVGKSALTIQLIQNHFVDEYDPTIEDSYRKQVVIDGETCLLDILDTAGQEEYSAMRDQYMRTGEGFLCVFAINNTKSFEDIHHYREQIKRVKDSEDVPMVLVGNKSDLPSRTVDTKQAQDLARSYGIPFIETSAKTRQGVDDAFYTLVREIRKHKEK
KRAS (G13D)::SOS1, sequence (P01116 other isoform, or with tags, fused parts or gaps G13D/C118S): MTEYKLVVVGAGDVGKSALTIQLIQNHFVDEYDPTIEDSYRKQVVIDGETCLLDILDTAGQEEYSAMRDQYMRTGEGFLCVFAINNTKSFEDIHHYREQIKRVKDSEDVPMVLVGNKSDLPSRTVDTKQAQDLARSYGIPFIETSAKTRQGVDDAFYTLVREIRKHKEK

IC50 (KRAS (G12V)::SOS1)	IC50 (KRAS (G13D)::SOS1)	IC50 (GP2D cells)	IC50 (A375 cells)	SMILES
0.054 µM	0.173 µM	0.006 µM		C[C@H](Oc1cc(N2CC[C@H](N(C)C)C2)nc(-c2noc3c2CCC[C@@]32CCCc3sc(N)c(C#N)c32)n1)[C@@H]1CCCN1C [II-49]
0.008 µM				C[C@H](Oc1cc(N2CCc3cccnc32)nc(-c2noc3c2CCC[C@@]32CCCc3sc(N)c(C#N)c32)n1)[C@@H]1CCCN1C [II-90]
0.002 µM				C[C@H](Oc1cc(-c2ccc(N)nc2)nc(-c2noc3c2CCC[C@@]32CCCc3sc(N)c(C#N)c32)n1)[C@@H]1CCCN1C [II-101]
0.005 µM				C[C@H](Oc1cc(-n2ccnc2)nc(-c2noc3c2CCC[C@@]32CCCc3sc(N)c(C#N)c32)n1)[C@@H]1C[C@@H](F)CN1C [II-120]
0.002 µM	0.009 µM	0.026 µM	> 3 µM	C[C@H](Oc1cc([C@@H]2CCOC2)nc(-c2noc3c2CCC[C@@]32CCCc3sc(N)c(C#N)c32)n1)[C@@H]1CCCN1C [II-94]
		0.111 µM	2.54 µM	C[C@H](Oc1cc(N2CCN(C)C2=O)nc(-c2noc3c2CCC[C@@]32CCCc3sc(N)c(C#N)c32)n1)[C@@H]1CCCN1C [II-75]
0.002 µM				C[C@H](Oc1cc(-n2ccc(-c3ccccn3)n2)nc(-c2noc3c2CCC[C@@]32CCCc3sc(N)c(C#N)c32)n1)[C@@H]1CCCN1C [II-119]
	0.041 µM			C[C@H](Oc1cc(C2CCOCC2)nc(-c2noc3c2CCC[C@@]32CCCc3sc(N)c(C#N)c32)n1)[C@@H]1CCCN1C [II-76]
	0.008 µM	0.037 µM	> 3 µM	C[C@H](Oc1cc(N2CCOC3(COC3)C2)nc(-c2noc3c2CCC[C@@]32CCCc3sc(N)c(C#N)c32)n1)[C@@H]1CCCN1C [II-77]
0.009 µM				C[C@H](Oc1cc(-c2cncnc2)nc(-c2noc3c2CCC[C@@]32CCCc3sc(N)c(C#N)c32)n1)[C@@H]1CCCN1C [II-82]
0.011 µM	0.047 µM	0.046 µM		C[C@H](Oc1cc(N2CCN(C)CC2)nc(-c2noc3c2CCC[C@@]32CCCc3sc(N)c(C#N)c32)n1)[C@@H]1CCCN1C [II-55]
			0.761 µM	CNC(=O)c1cn(-c2cc(O[C@@H](C)[C@@H]3CCCN3C)nc(-c3noc4c3CCC[C@@]43CCCc4sc(N)c(C#N)c43)n2)nn1 [II-122]
		0.394 µM	1.14 µM	CO[C@@H]1C[C@@H]([C@H](C)Oc2cc(-c3ccn(C)n3)nc(-c3noc4c3CCC[C@@]43CCCc4sc(N)c(C#N)c43)n2)N(C)C1 [II-91]
	0.009 µM			C[C@H](Oc1cc(N2CCCC3(COC3)C2)nc(-c2noc3c2CCC[C@@]32CCCc3sc(N)c(C#N)c32)n1)[C@@H]1CCCN1C [II-72]
	0.019 µM			C[C@H](Oc1cc(-n2cncn2)nc(-c2noc3c2CCC[C@@]32CCCc3sc(N)c(C#N)c32)n1)[C@@H]1CCCN1C [II-70]
0.003 µM				C[C@H](Oc1cc(-n2ccc(Br)n2)nc(-c2noc3c2CCC[C@@]32CCCc3sc(N)c(C#N)c32)n1)[C@@H]1CCCN1C [II-110]
0.002 µM				C[C@H](Oc1cc(-c2ccccn2)nc(-c2noc3c2CCC[C@@]32CCCc3sc(N)c(C#N)c32)n1)[C@@H]1CCCN1C [II-85]
		0.022 µM	2.58 µM	C[C@H](Oc1cc(N2CCNC2=O)nc(-c2noc3c2CCC[C@@]32CCCc3sc(N)c(C#N)c32)n1)[C@@H]1CCCN1C [II-64]
	0.017 µM			C[C@H](Oc1cc(-n2ccncc2=O)nc(-c2noc3c2CCC[C@@]32CCCc3sc(N)c(C#N)c32)n1)[C@@H]1CCCN1C [II-116]
0.002 µM		0.463 µM		C[C@H](Oc1cc(-n2cncc3ccnc2-3)nc(-c2noc3c2CCC[C@@]32CCCc3sc(N)c(C#N)c32)n1)[C@@H]1CCCN1C [II-105]
0.009 µM	0.033 µM	0.001 µM		C[C@H](Oc1cc(N2CCNC3(CC3)C2)nc(-c2noc3c2CCC[C@@]32CCCc3sc(N)c(C#N)c32)n1)[C@@H]1CCCN1C [II-54]
			0.259 µM	C[C@H](Oc1cc(-n2cc(-c3cccnc3)nn2)nc(-c2noc3c2CCC[C@@]32CCCc3sc(N)c(C#N)c32)n1)[C@@H]1CCCN1C [II-123]
0.003 µM				C[C@H](Oc1cc(-c2ccncc2)nc(-c2noc3c2CCC[C@@]32CCCc3sc(N)c(C#N)c32)n1)[C@@H]1CCCN1C [II-78]
0.002 µM		0.809 µM		C[C@H](Oc1cc(-c2ccn(C)n2)nc(-c2noc3c2CCC[C@@]32CCCc3sc(N)c(C#N)c32)n1)[C@@H]1CCCN1C [II-96]
